From article PMC7922534, “Searching for Peptide Inhibitors of T Regulatory Cell Activity by Targeting Specific Domains of FOXP3 Transcription Factor” (Biomedicines, 2021)
One block for each molecule: values may come before it.

Key:
[1] = test system: Karpas 299 human cell line; experiment: Mixed lymphocyte reaction with Karpas 299 Treg cell line, IFN-γ by ELISA; assay type: cell-based; conditions: MLR of PBMCs from two donors + Karpas 299, peptide 50 μM, 48 h
Protocol: (§1) In vitro assays were carried out using (i) the Karpas 299 human cell line (ACC-31, DSMZ, Germany), derived from a human lymphoma with a regulatory T cell profile or (ii) using natural Treg cells isolated from the murine splenocytes. To evaluate the effect of peptides on the immunosuppressive activity of the Karpas 299 cell line, a “mixed lymphocyte reaction” (MLR) assay was carried out using peripheral blood mononuclear cells (PBMCs) from two donors (previously tested to induce a strong MLR reaction in co-culture) (1 × 10^5 cells/well per each PBMC) in the presence or absence of Karpas 299 (1 × 10^4 cells/well). Peptides were added at 50 μM to the co-cultures to evaluate their capacity to restore the production of interferon-gamma (IFN-γ) inhibited by Karpas 299. After 48 hours, the supernatants were extracted to measure interferon-gamma (IFN-γ) by means of a commercial ELISA (Pharmingen, San Diego, CA, US). In vitro assays for Treg inhibition using natural Treg cells: Murine CD4+CD25+ (Treg cells), and CD4+CD25-T-cells (effector T cells) were purified from murine spleen cells by using a murine regulatory T-cell isolation kit (Miltenyi Biotec, Bergisch Gladbach, Germany) according to the manufacturer’s instructions. The purity of the resulting T-cell populations was confirmed to be >95% by flow cytometry. Inhibition of murine T regulatory cell function was measured in an in vitro assay of T-cell stimulation. Effector T cells (10^5 cells/well) from BALB/c mice were stimulated in vitro with 2, 5 μg/mL of anti-mouse CD3 antibody (Pharmingen) in the presence/absence of purified Treg cells (10^4 cells/well) and the indicated peptides (50 μM). T-cell proliferation was measured 3 days later as previously described. Percentage of Treg inhibition was calculated using the following formula: % inhibition= 100*((cpm of Teff&Treg co-cultures in the presence of peptide - cpm of Teff&Treg co-cultures)/(cpm of Teff - cpm of Teff&Treg co-cultures)). The Institutional Review Board on Human Subjects (Clínica Universidad de Navarra, Ref 2016.118) approved this research, and informed consent was obtained from all blood donors.

4T1-FOXP3 cells = experiment: Proliferation of 4T1-Ctrl and 4T1-FOXP3 tumor cells in vitro; assay type: cell-based; conditions: peptide 50 μM, Figure 2C
Protocol: The cell line 4T1-FOXP3 expressing FOXP3 was generated. 4T1-WT cells were transfected with empty pcDNA3.1 or with pcDNA3.1 FOXP3, expressing FOXP3 gene and neomycin (which confers resistance to G418 antibiotic) to generate 4T1-Ctrl and 4T1-Foxp3 cells. Briefly, 8 × 10^5 cells were seeded in 6-well culture plates one day prior to transfection. The cultures were 60–80% confluent at the time of transfection. Cells were transfected with 5 ug plasmid DNA per well for 6 hours using lipofectimine 2000 transfection reagent (Invitrogen). After 48 hours, 0.3 mg/mL of G418 drug (GIBCO) was added to the culture during 14 days for the selection of resistant cells. These cells were used in vitro to measure the effect of peptides to overcome the proliferative capacity inhibited by FOXP3. In addition, 4T1-FOXP3 and 4T1-Ctrl cells were injected in vivo (10^5 cells/ mouse) subcutaneously or intravenously to compare their capacity to induce tumors and lung metastases. Murine Lewis lung carcinoma expressing OVA, LLCOVA were kindly provided by Dr. Daniel Ajona (CIMA). The murine colon adenocarcinoma cell line MC38, LLOOVA, 4T1-Ctrl, and 4T1-FOXP3 were cultured in mouse medium (RPMI 1640, 10% fetal calf serum (Sigma), 100 U/mL penicillin, 100 μg/mL streptomycin (Invitrogene), […] Gentamicin (Gibco), 2 mM L-Glutamine (Lifetechnologies), […] β-mercaptoethanol (Sigma), and fungizone (GIBCO). All cell lines were cultured at 37 °C in a humidified atmosphere with 6.5% CO2.

[2] = test system: murine CD4+CD25+ Treg cells; experiment: In vitro Treg inhibition: anti-CD3 stimulated effector T cells co-cultured with Treg cells, tritiated thymidine incorporation; assay type: cell-based, mouse; conditions: peptide 50 μM; for toxicity in Teff&Treg co-cultures: cpm below cpm of Teff&Treg co-cultures without peptide; for Treg inhibitory capacity in vitro (proliferation of effector T cells with anti-CD3 in presence of Treg): BALB/c Teff 10^5 + Treg 10^4 cells/well, 3 days, tritiated thymidine
Protocol: as §1

FOXP3 = experiment: Surface plasmon resonance binding of peptides to a chip coated with FOXP3; conditions: peptide 10 μM; Figure 4A
Protocol: (§2) The screening of peptide binders to FOXP3 was performed by surface plasmon resonance (SPR) using a ProteOn XPR36 (Bio-Rad, Hercules CA, USA) optical biosensor. Recombinant protein FOXP3-6His produced and purified from E-coli was immobilized covalently onto a GLC sensor chip (Bio-Rad) using the coupling reagents sulfo-NHS (N-Hydroxysulfosuccinimide) and EDC (1-Ethyl-3-(3-dimethylaminopropyl) carbodiimide, (Bio-Rad) as previously described. Peptide solutions (10 μM) were injected by triplicate in running buffer (phosphate-buffered saline, 0.005% (v/v) Tween 20, pH 7.4) at a flow of 30 μL/min. The interspot signal (obtained in the chip surface not immobilized with protein) was used as reference. FOXP3/NFAT1 and FOXP3/AML1 interactions were analyzed by Alphascreen technology as previously described according to the manufacturer’s protocol (Perkin Elmer, Benelux). Reactions were performed in a 40 μL final volume in 96-well Optiwell microtiter plates (Perkin Elmer). The reaction buffer contained 20 mM HEPES (4-(2-hydroxyethyl)-1-piperazineethanesulfonic acid), pH 7.9, 200 mM KCl, 1 mM MgCl2 and 0.05% bovine serum albumin (BSA). Recombinant NFAT1 expressed with a hexa-Histidine tag was captured by nickel chelate acceptor beads, whereas recombinant FOXP3 expressed with a GST (glutathione S-transferase) tag was captured by glutathione donor beads (Perkin Elmer). For FOXP3 dimerization assays, GST-tagged FOXP3 and His-tagged FOXP3 were co-cultured in the presence or absence of the indicated peptides for 1 h. Then, donor and acceptor beads were added as described above and incubated for 2 h. FOXP3/AML1 interaction was measured following a similar protocol using FOXP3-GST and AML1-His proteins. Exposure of the reaction to direct light was avoided as much as possible, and the emission of light from the acceptor beads was measured in the EnVision plate reader after the indicated incubation period (Perkin Elmer, Benelux).

[3] = test system: murine CD4+CD25+ Treg cells; experiment: In vitro Treg inhibition: anti-CD3 stimulated effector T cells co-cultured with Treg cells, tritiated thymidine incorporation; assay type: cell-based, mouse; conditions: peptide 10 μM (not shown)
FOXP3/NFAT1 = experiment: FOXP3/NFAT interaction by Alphascreen; assay type: binding; conditions: alpha screen; Figure 6C
Protocol: as §2, with “The reaction buffer contained 20 mM HEPES (4-(2-hydroxyethyl)-1-piperazineethanesulfonic acid), pH 7.9, 200 mM KCl, 1 mM MgCl2 and 0.05% bovine serum albumin (BSA). Recombinant NFAT1 expressed with a hexa-Histidine tag was captured by nickel chelate acceptor beads, whereas recombinant FOXP3 expressed with a GST (glutathione S-transferase) tag was captured by glutathione donor beads (Perkin Elmer). For FOXP3 dimerization assays, GST-tagged FOXP3 and His-tagged FOXP3 were co-cultured in the presence or absence of the indicated peptides for 1 h. Then, donor and acceptor beads were added as described above and incubated for 2 h.” left out

FOXP3-6His = biological target: T1, FOXP3-6His (UniProt Q9BZS1-1 1-417); experiment: SPR; FOXP3-6His immobilised covalently on a GLC sensor chip (ProteOn XPR36); peptides 10 uM injected in triplicate; PBS, 0.005% Tween 20, pH 7.4; 30 uL/min; interspot signal as reference; conditions: both partners purified
T1 construct: FOXP3 (Forkhead box protein 3) transcription factor; also called His-tagged FOXP3
T1 sequence (looked up): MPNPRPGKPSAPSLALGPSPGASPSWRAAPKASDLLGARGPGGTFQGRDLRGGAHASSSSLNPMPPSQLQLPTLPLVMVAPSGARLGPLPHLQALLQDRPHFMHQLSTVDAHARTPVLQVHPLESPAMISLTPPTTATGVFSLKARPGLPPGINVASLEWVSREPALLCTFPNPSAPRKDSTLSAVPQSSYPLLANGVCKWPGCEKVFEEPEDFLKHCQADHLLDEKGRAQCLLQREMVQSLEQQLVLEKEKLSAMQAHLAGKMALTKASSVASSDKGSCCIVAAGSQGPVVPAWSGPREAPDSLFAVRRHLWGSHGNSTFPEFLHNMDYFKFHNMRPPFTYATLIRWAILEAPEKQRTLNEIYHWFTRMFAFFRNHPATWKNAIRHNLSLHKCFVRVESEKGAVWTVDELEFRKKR

Molecule: IRGLRFGPGFMWPTL [p50]
- Treg inhibitory capacity (Karpas MLR assays) [1]: potential Treg inhibitory capacity
- effect on tumor-suppressor activity of FOXP3 (proliferation of 4T1-FOXP3 versus 4T1-Ctrl cells) (4T1-FOXP3 cells): able to inhibit the tumor-suppressor activity

Molecule: IYHWFTRMFAFFRNH [F363–377, 15-mer overlapping peptide from the FKH domain of FOXP3]
- toxicity in Teff&Treg co-cultures [2]: some toxicity
- binding capacity to FOXP3 by SPR (FKH domain peptides) (FOXP3): good binders to FOXP3
- Treg inhibitory capacity in vitro [3]: did not exhibit Treg inhibitory capacity
- toxicity in Teff&Treg co-cultures [3]: no toxicity was observed

Molecule: RVESEKGAVW [397–406 L, linear version of peptide F397–406 from the FKH domain]
- disruption of FOXP3-NFAT heterodimerization (FOXP3/NFAT1): retained the activity to impair Foxp3/NFAT interaction

Molecule: RRQIHLVLPWRAVQS [p52]
- Treg inhibitory capacity (Karpas MLR assays) [1]: potential Treg inhibitory capacity
- effect on tumor-suppressor activity of FOXP3 (proliferation of 4T1-FOXP3 versus 4T1-Ctrl cells) (4T1-FOXP3 cells): able to inhibit the tumor-suppressor activity

Molecule: TRMFAFFRNHPATWK [F368–382, 15-mer overlapping peptide from the FKH domain of FOXP3]
- toxicity in Teff&Treg co-cultures [2]: some toxicity
- binding capacity to FOXP3 by SPR (FKH domain peptides) (FOXP3): good binders to FOXP3
- Treg inhibitory capacity in vitro [3]: did not exhibit Treg inhibitory capacity
- toxicity in Teff&Treg co-cultures [3]: no toxicity was observed

Molecule: WAILEAPEKQRTLNE [F348–362, 15-mer overlapping peptide from the FKH domain of FOXP3]
- Treg inhibitory capacity in vitro (proliferation of effector T cells with anti-CD3 in presence of Treg) [2]: strong Treg inhibitory capacity

Molecule: RRIVSQLLHPLWSMP [p61]
- Treg inhibitory capacity (Karpas MLR assays) [1]: potential Treg inhibitory capacity

Molecule: RSRFFAPFAFLSSGL [p53]
- Treg inhibitory capacity (Karpas MLR assays) [1]: potential Treg inhibitory capacity

Molecule: GGFSLHPWWRFNHDR [p65]
- Treg inhibitory capacity (Karpas MLR assays) [1]: potential Treg inhibitory capacity
- effect on tumor-suppressor activity of FOXP3 (proliferation of 4T1-FOXP3 versus 4T1-Ctrl cells) (4T1-FOXP3 cells): able to inhibit the tumor-suppressor activity

Molecule: CGISYGRKKRRQRRR-KCFVRVESEKG [TAT-393–403, peptide F393–403 fused to the cell-penetrating peptide TAT (Tat 44–57)]
- Treg inhibitory capacity in vitro (proliferation of effector T cells with anti-CD3 in presence of Treg) [2]: significantly improved the Treg inhibitory capacity

Molecule: KCFVRVESEKGAVWT [F393–407, 15-mer overlapping peptide from the FKH domain of FOXP3]
- level of T-cell proliferation in presence of peptide versus anti-CD3 stimulated T-cells without Treg [2]: surpassed the maximum proliferation of T-cells stimulated with anti-CD3 in the absence of Treg cells
- Treg inhibitory capacity in vitro (proliferation of effector T cells with anti-CD3 in presence of Treg) [2]: strong Treg inhibitory capacity

Molecule: RTLNEIYHWFTRMFA [F358–372, 15-mer overlapping peptide from the FKH domain of FOXP3]
- Treg inhibitory capacity in vitro (proliferation of effector T cells with anti-CD3 in presence of Treg) [2]: strong Treg inhibitory capacity

Molecule: NLSLHKCFVRVESEK [F388–402, 15-mer overlapping peptide from the FKH domain of FOXP3]
- Treg inhibitory capacity in vitro (proliferation of effector T cells with anti-CD3 in presence of Treg) [2]: strong Treg inhibitory capacity

The next lines start with the values.

- binding capacity to FOXP3 by SPR (FKH domain peptides) (FOXP3): good binders to FOXP3
Molecule: PATWKNAIRHNLSLH [F378–392, 15-mer overlapping peptide from the FKH domain of FOXP3]

- binding capacity to FOXP3 by SPR (FKH domain peptides) (FOXP3): good binders to FOXP3
Molecule: NAIRHNLSLHKCFVR [F383–397, 15-mer overlapping peptide from the FKH domain of FOXP3]

- SPR response (FOXP3-6His): > 500 RU
Molecule: GGFSLHPWWRFNHDR (source: synthetic peptide) [p65]

- SPR response (FOXP3-6His): > 500 RU
Molecule: RDFQSFRKMWPFFAM (source: synthetic peptide) [p60]

- SPR response (FOXP3-6His): > 500 RU
Molecule: IRGLRFGPGFMWPTL (source: synthetic peptide) [p50]

- SPR response (FOXP3-6His): > 500 RU
Molecule: RRQIHLVLPWRAVQS (source: synthetic peptide) [p52]

- SPR response (FOXP3-6His): > 500 RU
Molecule: SSKSLAAPLGLFVVG (source: synthetic peptide) [p55]

- SPR response (FOXP3-6His): > 500 RU
Molecule: GLRERMRLPFFVFGG (source: synthetic peptide) [p49]

- SPR response (FOXP3-6His): > 500 RU
Molecule: RFWDYDLMLRVLRPL (source: synthetic peptide) [p59]

- SPR response (FOXP3-6His): > 500 RU
Molecule: GMRFFPWLGVGFAMR (source: synthetic peptide) [p47]
